Source: patent US20060160894A1, “Benzamides as ppar modulators” (LABORATORIOS S.A.L.V.A.T.,S.A., priority 2003, published 2006)
Where two headings read alike, the source gives them in different places.

How the values were obtained:
GST-hPPARγ2 = target: T1, GST-hPPARγ2 (Homo sapiens, UniProt P37231); experiment: Assay of binding to the PPARγ2 ([3H]BRL-49853 displacement)
T1 construct: the complete cDNA of the […] human PPARs were cloned into pGEX4T2; made in house; host or cells: Escherichia coli BL21 (DE3)
T1 sequence (P37231 1-505): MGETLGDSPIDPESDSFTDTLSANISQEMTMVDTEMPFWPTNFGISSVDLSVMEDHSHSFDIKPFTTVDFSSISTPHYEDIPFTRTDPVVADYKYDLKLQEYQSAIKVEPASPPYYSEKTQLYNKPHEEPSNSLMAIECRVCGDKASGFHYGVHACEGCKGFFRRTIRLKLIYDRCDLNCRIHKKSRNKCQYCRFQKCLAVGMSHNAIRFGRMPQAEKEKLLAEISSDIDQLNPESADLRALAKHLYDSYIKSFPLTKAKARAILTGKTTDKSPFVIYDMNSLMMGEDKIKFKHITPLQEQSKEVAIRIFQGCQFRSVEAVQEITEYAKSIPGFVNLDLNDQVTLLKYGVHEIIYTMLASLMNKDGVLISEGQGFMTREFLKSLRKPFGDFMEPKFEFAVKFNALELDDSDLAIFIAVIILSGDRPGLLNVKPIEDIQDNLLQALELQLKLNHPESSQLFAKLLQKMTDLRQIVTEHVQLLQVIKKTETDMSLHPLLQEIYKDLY
Procedure: Assay of Binding to the PPARγ2
The cDNA encoding for the open reading frame of the hPPARγ2 is amplified by PCR (polymerase chain reaction) and inserted in the plasmid pGEX-4T-2.
The reaction mixture was transferred to a Multiscreen Durapore (Millipore) microplate containing glutathione-Sepharose 4B in every well. The reaction mixture was left to incubate with the resin during 10 min, and then centrifuged at 735 g during 2 min. To dissociate the receptor bound to the resin, reduced glutathione 10 mM is added and incubated during 10 min. The receptor was eluted by centrifugation. Then, 800 μL of scintillation liquid were added to the elution and the contained radioactivity was quantified by liquid scintillation spectroscopy (Microbeta Wallac, Perkin Elmer).

PPARγ LBD = target: T2, PPARγ LBD (Homo sapiens, UniProt P37231); experiment: LBD-hPPARs transactivation assay (GAL4-LBD luciferase reporter in COS-7 cells); assay type: cell-based; details: 48 h
T2 construct: expressed in transfected cells; host or cells: COS-7
T2 sequence (P37231 238-503 limits assumed): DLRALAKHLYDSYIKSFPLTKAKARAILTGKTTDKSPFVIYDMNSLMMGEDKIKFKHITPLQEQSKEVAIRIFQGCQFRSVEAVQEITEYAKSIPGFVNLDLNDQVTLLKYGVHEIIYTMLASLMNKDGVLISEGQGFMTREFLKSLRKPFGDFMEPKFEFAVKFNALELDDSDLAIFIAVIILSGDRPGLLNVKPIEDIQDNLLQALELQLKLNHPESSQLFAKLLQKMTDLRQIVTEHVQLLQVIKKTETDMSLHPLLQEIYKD
From the text: LBD-hPPARs Transactivation Assay
COS-7 cells were cultivated in 24-well plates and transfected with the pFACMV plasmids that encode the chimeric proteins containing the GAL4 DNA binding domain fused to the PPARγ LBD. The reporter plasmid for the foregoing constructions was pFR-Luc, which contains five repetitions of the GAL4-response element in front of a promoter that controls the transcription of the luciferase gene. Lipofectamine was used as a transfection agent.
The plasmids of the chimeric receptors and the reporter gene were inserted in the cells by transitory transfection in COS-7 cells in culture.

GST-hPPARα = target: T3, GST-hPPARα (Homo sapiens, UniProt Q07869); experiment: GST-hPPARα binding ([3H]-GW2433 displacement)
T3 construct: the complete cDNA of the […] human PPARs were cloned into pGEX4T2; made in house; host or cells: Escherichia coli BL21 (DE3)
T3 sequence (Q07869 1-468): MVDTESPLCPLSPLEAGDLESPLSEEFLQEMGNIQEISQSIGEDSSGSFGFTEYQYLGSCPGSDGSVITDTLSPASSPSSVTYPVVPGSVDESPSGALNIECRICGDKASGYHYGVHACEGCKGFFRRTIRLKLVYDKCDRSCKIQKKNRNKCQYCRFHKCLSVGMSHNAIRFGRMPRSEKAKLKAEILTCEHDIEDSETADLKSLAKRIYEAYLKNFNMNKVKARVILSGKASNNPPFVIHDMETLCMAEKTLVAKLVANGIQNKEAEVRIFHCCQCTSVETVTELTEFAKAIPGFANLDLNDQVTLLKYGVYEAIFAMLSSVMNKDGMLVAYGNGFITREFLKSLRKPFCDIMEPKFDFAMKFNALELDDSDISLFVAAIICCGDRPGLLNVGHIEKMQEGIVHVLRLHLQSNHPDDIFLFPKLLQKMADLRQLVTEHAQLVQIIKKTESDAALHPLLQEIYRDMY
From the text: Cloning of Human PPARα, PPARδ and PPARγ2
The human PPARs cDNAs were amplified through RT-PCR. For hPPARα, RNA was obtained from HepG2 cells treated with linoleic acid; for h PPARδ, RNA was obtained from untreated HepG2 cells; for hPPARγ2, RNA was obtained from human white adipose tissue. Each amplified fragment was cloned into pBluescript (Stratagene®) and sequenced. One clone for each construction was selected and used as template for further subcloning and PCR amplifications.
GST-Fused Protein Construction
To generate these chimeric proteins, the complete cDNA of the […] human PPARs were cloned into pGEX4T2 (Amersham Biosciences). The fragment was obtained from the pBluescript-cDNAs clones digested with endonucleases. To assess the plasmid identity and to ensure the in-phase cloning of the proteins, pGEXs constructions were sequenced. […] Receptor purity was visualized by SDS-PAGE and protein content was determined by Bradford method. […]
Using 96-well culture plates, PPARα or PPARδ (5 μg) were diluted to a total volume of 100 μL with buffer consisting of 50 mM HEPES (pH: 7.0), 50 mM KCl, 5 mM EDTA and 10 mM DTT, in the presence of [3H]-GW2433 (100 and 50 nM for PPARα and PPARδ, respectively). […] Eluted radioactivity was quantitated by liquid scintillation counting in a Microbeta counter (Perkin Elmer).

[1] = Table 19, GST-hPPARγ2, [3H]BRL-49853 100 nM, read-out: Affinity PPARγ(1)

SMILES | Functional activity PPARγ (PPARγ LBD) | Ki (GST-hPPARγ2; [1]) [nM] | Ki (GST-hPPARγ2) [nM] | Ki (GST-hPPARα) [nM]
O=C(N[C@@H](Cc1ccc(OCc2ccccc2)cc1)C(=O)O)c1ccc(OCc2ccccc2-c2ccccc2)cc1 [Example 184, (2S)-3-(4-Benzyloxyphenyl)-2-[4-(biphenyl-2-ylmethoxy)benzoylamino]propionic acid] | Antagonist | – | < 1000 | > 3000
Cc1nc2ccccc2nc1OCCOc1ccc(C(=O)N[C@@H](Cc2ccc(F)cc2)C(=O)O)cc1 [Example 192, (2S)-3-(4-Fluorophenyl)-2-{4-[2-(3-methylquinoxalin-2-yloxy)ethoxy]benzoylamino}propionic acid] | Partial agonist | > 3000 | – | –
CCCCOc1ccc(COc2ccc(C(=O)N[C@@H](CC3CCCCC3)C(=O)O)cc2)cc1 [Example 237, (2S)-2-[4-(4-Butoxybenzyloxy)benzoylamino]-3-cyclohexylpropionic acid] | Partial agonist | < 1000 | – | –
Cc1nc2ccccc2nc1OCCOc1ccc(C(=O)N[C@@H](Cc2ccc(OCc3ccccc3)cc2)C(=O)N(C)C)cc1 [Example 267, N-[(1S)-2-(4-Benzyloxyphenyl)-1-dimethylcarbamoylethyl]-4-[2-(3-methylquinoxalin-2-yloxy)ethoxy]benzamide] | Partial agonist | 1000 to 3000 | – | –

The next lines start with results.

Functional activity PPARγ (PPARγ LBD) | Ki (GST-hPPARγ2; [1]) [nM] | SMILES | Ki (GST-hPPARγ2) [nM] | Ki (GST-hPPARα) [nM]
Agonist | < 1000 | CCCCc1ccc(COc2ccc(C(=O)N[C@@H](CC3CCCCC3)C(=O)O)cc2)cc1 [Example 210, (2S)-2-[4-(4-Butylbenzyloxy)benzoylamino]-3-cyclohexylpropionic acid] | – | –
Antagonist | < 1000 | CCCCc1ccc(COc2ccc(C(=O)N(CCC(=O)O)Cc3cccc(OCc4ccccc4)c3)cc2)cc1 [Example 218, 3-{(3-Benzyloxybenzyl)-[4-(4-butylbenzyloxy)benzoyl]amino}propionic acid] | – | –
Antagonist | < 1000 | O=C(N[C@@H](Cc1ccc(OCc2ccccc2)cc1)C(=O)O)c1ccc(OCc2ccccc2Br)cc1 [Example 238, (2S)-3-(4-Benzyloxyphenyl)-2-[4-(2-bromobenzyloxy)benzoylamino]propionic acid] | – | –
Antagonist | < 1000 | Cc1ccccc1COc1ccc(C(=O)N[C@@H](Cc2ccc(OCc3ccccc3)cc2)C(=O)O)cc1 [Example 243, (2S)-3-(4-Benzyloxyphenyl)-2-[4-(2-methylbenzyloxy)benzoylamino]propionic acid] | – | –
